Results: patent publication US11154060B2, “Microbiocidal oxadiazole derivatives” (SYNGENTA PARTICIPATIONS AG, priority 2016, dated 2021)

What was measured:
[1] = test system: Puccinia recondita f. sp. tritici; assay: Puccinia recondita f. sp. tritici / wheat / leaf disc preventative (brown rust); type: in vivo; conditions: foliar, wheat leaf segments cv. Kanzler, inoculated 1 day after application, assessed 7-9 days after application, read-out: control of Puccinia recondita f. sp. tritici compared to untreated control
Method: Leaf disks or leaf segments of various plant species are cut from plants grown in a greenhouse. The cut leaf disks or segments are placed in multiwell plates (24-well format) onto water agar. The leaf disks are sprayed with a test solution before (preventative) or after (curative) inoculation. Compounds to be tested are prepared as DMSO solutions (max. 10 mg/ml) which are diluted to the appropriate concentration with 0.025% Tween20 just before spraying. The inoculated leaf disks or segments are incubated under defined conditions (temperature, relative humidity, light, etc.) according to the respective test system. A single evaluation of disease level is carried out 3 to 14 days after inoculation, depending on the pathosystem. Percent disease control relative to the untreated check leaf disks or segments is then calculated. Wheat leaf segments cv. Kanzler are placed on agar in multiwell plates (24-well format) and sprayed with the formulated test compound diluted in water. The leaf disks are inoculated with a spore suspension of the fungus 1 day after application. The inoculated leaf segments are incubated at 19° C. and 75% rh under a light regime of 12 h light/12 h darkness in a climate cabinet and the activity of a compound is assessed as percent disease control compared to untreated when an appropriate level of disease damage appears in untreated check leaf segments (7-9 days after application).

Uromyces viciae-fabae = Uromyces viciae-fabae / field bean / leaf disc preventative (faba-bean rust); type: in vivo; conditions: foliar, 288 h, 100 ppm in the applied formulation, field bean leaf discs, inoculated two hours after application, 12 days after application, read-out: disease control compared to untreated control leaf discs
Method: Leaf disks or leaf segments of various plant species are cut from plants grown in a greenhouse. The cut leaf disks or segments are placed in multiwell plates (24-well format) onto water agar. The leaf disks are sprayed with a test solution before (preventative) or after (curative) inoculation. Compounds to be tested are prepared as DMSO solutions (max. 10 mg/ml) which are diluted to the appropriate concentration with 0.025% Tween20 just before spraying. The inoculated leaf disks or segments are incubated under defined conditions (temperature, relative humidity, light, etc.) according to the respective test system. A single evaluation of disease level is carried out 3 to 14 days after inoculation, depending on the pathosystem. Percent disease control relative to the untreated check leaf disks or segments is then calculated. Field bean leaf discs are placed on water agar in multiwell plates (96-well format) and 10 μl of the formulated test compound diluted in acetone and a spreader pipetted onto the leaf disc. Two hours after application leaf discs are inoculated by spraying a spore suspension on the lower leaf surface. The leaf discs are incubated in a climate cabinet at 22° C. with 18 hour day and 70% relative humidity. The activity of a compound is assessed as percent disease control compared to untreated when an appropriate level of disease damage appears in untreated check leaf disks (12 days after application).

[2] = test system: Glomerella lagenarium (Colletotrichum lagenarium); assay: Glomerella lagenarium (Colletotrichum lagenarium) liquid culture / cucumber / preventative (anthracnose); type: cell-based; conditions: Colletotrichum orbiculare, liquid culture in PDB, 24° C., 3-4 days after application, read-out: control of Glomerella lagenarium compared to untreated control (inhibition of growth, photometric)
Method: Mycelia fragments or conidia suspensions of a fungus prepared either freshly from liquid cultures of the fungus or from cryogenic storage, are directly mixed into nutrient broth. DMSO solutions of the test compound (max. 10 mg/ml) are diluted with 0.025% Tween20 by a factor of 50 and 10 μl of this solution is pipetted into a microtiter plate (96-well format). The nutrient broth containing the fungal spores/mycelia fragments is then added to give an end concentration of the tested compound. The test plates are incubated in the dark at 24° C. and 96% relative humidity. The inhibition of fungal growth is determined photometrically after 2 to 7 days, depending on the pathosystem, and percent antifungal activity relative to the untreated check is calculated. Conidia of the fungus from cryogenic storage are directly mixed into nutrient broth (PDB potato dextrose broth). After placing a (DMSO) solution of test compound into a microtiter plate (96-well format), the nutrient broth containing the fungal spores is added. The test plates are incubated at 24° C. and the inhibition of growth is measured photometrically 3-4 days after application.

Phakopsora pachyrhizi = Phakopsora pachyrhizi / soybean / leaf disc preventative (Asian soybean rust); type: in vivo; conditions: foliar, soybean leaf disks, inoculated one day after application, assessed 12-14 days after application, read-out: control of Phakopsora pachyrhizi compared to untreated control
Method: Leaf disks or leaf segments of various plant species are cut from plants grown in a greenhouse. The cut leaf disks or segments are placed in multiwell plates (24-well format) onto water agar. The leaf disks are sprayed with a test solution before (preventative) or after (curative) inoculation. Compounds to be tested are prepared as DMSO solutions (max. 10 mg/ml) which are diluted to the appropriate concentration with 0.025% Tween20 just before spraying. The inoculated leaf disks or segments are incubated under defined conditions (temperature, relative humidity, light, etc.) according to the respective test system. A single evaluation of disease level is carried out 3 to 14 days after inoculation, depending on the pathosystem. Percent disease control relative to the untreated check leaf disks or segments is then calculated. Soybean leaf disks are placed on water agar in multiwell plates (24-well format) and sprayed with the formulated test compound diluted in water. One day after application leaf discs are inoculated by spraying a spore suspension on the lower leaf surface. After an incubation period in a climate cabinet of 24-36 hours in darkness at 20° C. and 75% rh leaf disc are kept at 20° C. with 12 h light/12 h darkness and 75% rh. The activity of a compound is assessed as percent disease control compared to untreated when an appropriate level of disease damage appears in untreated check leaf disks (12-14 days after application).

[3] = test system: Puccinia recondita f. sp. tritici; assay: Puccinia recondita f. sp. tritici / wheat / leaf disc curative (brown rust); type: in vivo; conditions: foliar, wheat leaf segments cv. Kanzler, applied 1 day after inoculation, assessed 6-8 days after application, read-out: control of Puccinia recondita f. sp. tritici compared to untreated control
Method: Leaf disks or leaf segments of various plant species are cut from plants grown in a greenhouse. The cut leaf disks or segments are placed in multiwell plates (24-well format) onto water agar. The leaf disks are sprayed with a test solution before (preventative) or after (curative) inoculation. Compounds to be tested are prepared as DMSO solutions (max. 10 mg/ml) which are diluted to the appropriate concentration with 0.025% Tween20 just before spraying. The inoculated leaf disks or segments are incubated under defined conditions (temperature, relative humidity, light, etc.) according to the respective test system. A single evaluation of disease level is carried out 3 to 14 days after inoculation, depending on the pathosystem. Percent disease control relative to the untreated check leaf disks or segments is then calculated. Wheat leaf segments cv. Kanzler are placed on agar in multiwell plates (24-well format). The leaf segments are inoculated with a spore suspension of the fungus. Plates are stored in darkness at 19° C. and 75% rh. The formulated test compound diluted in water is applied 1 day after inoculation. The leaf segments are incubated at 19° C. and 75% rh under a light regime of 12 h light/12 h darkness in a climate cabinet and the activity of a compound is assessed as percent disease control compared to untreated when an appropriate level of disease damage appears in untreated check leaf segments (6-8 days after application).

Row | melting point [°C] | Structure (SMILES) | pest or weed control at 200 ppm [1] [%] | pest or weed control at 100 ppm (Uromyces viciae-fabae) [%] | inhibition at 20 ppm [2] [%] | pest or weed control at 200 ppm (Phakopsora pachyrhizi) [%] | pest or weed control at 200 ppm [3] [%]
1 |  | COC(=O)C1(N(O)C(=O)c2ccc(-c3noc(C(F)(F)F)n3)cc2F)CCN(OC)CC1 [Compound 1.5, methyl 4-[[2-fluoro-4-[5-(trifluoromethyl)-1,2,4-oxadiazol-3-yl]benzoyl]-hydroxy-amino]-1-methoxy-piperidine-4-carboxylate] | ≥ 80 | ≥ 80 | ≥ 80 | ≥ 80 | ≥ 80
2 |  | CON(Cc1ccccc1)C(=O)c1ccc(-c2noc(C(F)(F)F)n2)cc1F [Compound 1.6, N-benzyl-2-fluoro-N-methoxy-4-[5-(trifluoromethyl)-1,2,4-oxadiazol-3-yl]benzamide] | ≥ 80 | ≥ 80 | ≥ 80 | ≥ 80 | ≥ 80
3 |  | CON(Cc1ccco1)C(=O)c1ccc(-c2noc(C(F)(F)F)n2)cc1F [Compound 1.7, 2-fluoro-N-(2-furylmethyl)-N-methoxy-4-[5-(trifluoromethyl)-1,2,4-oxadiazol-3-yl]benzamide] | ≥ 80 | ≥ 80 | ≥ 80 | ≥ 80 | ≥ 80
4 |  | CON(CC1CC1)C(=O)c1ccc(-c2noc(C(F)(F)F)n2)cc1F [Compound 1.8, N-(cyclopropylmethyl)-2-fluoro-N-methoxy-4-[5-(trifluoromethyl)-1,2,4-oxadiazol-3-yl]benzamide] | ≥ 80 | ≥ 80 | ≥ 80 | ≥ 80 | ≥ 80
5 |  | C#CCN(OC)C(=O)c1ccc(-c2noc(C(F)(F)F)n2)cc1F [Compound 1.10, 2-fluoro-N-methoxy-N-prop-2-ynyl-4-[5-(trifluoromethyl)-1,2,4-oxadiazol-3-yl]benzamide] | ≥ 80 | ≥ 80 | ≥ 80 | ≥ 80 | ≥ 80
6 | 139 to 144 | CCONC(=O)c1ccc(-c2noc(C(F)(F)F)n2)c(F)c1 [Compound 1.13, N-ethoxy-3-fluoro-4-[5-(trifluoromethyl)-1,2,4-oxadiazol-3-yl]benzamide] | ≥ 80 |  | ≥ 80 |  | 
7 |  | CON(CC(=O)NC(C)(C)C)C(=O)c1ccc(-c2noc(C(F)(F)F)n2)cc1 [Compound 2.2, N-[2-(tert-butylamino)-2-oxo-ethyl]-N-methoxy-4-[5-(trifluoromethyl)-1,2,4-oxadiazol-3-yl]benzamide] | ≥ 80 | ≥ 80 | ≥ 80 | ≥ 80 | ≥ 80
8 |  | O=C(NO)c1ccc(-c2noc(C(F)(F)F)n2)cc1 [Compound 2.4, 4-[5-(trifluoromethyl)-1,2,4-oxadiazol-3-yl]benzenecarbohydroxamic acid] | ≥ 80 | ≥ 80 | ≥ 80 | ≥ 80 | ≥ 80
9 |  | CON(Cc1ccccc1)C(=O)c1ccc(-c2noc(C(F)(F)F)n2)cc1 [Compound 2.5, N-benzyl-N-methoxy-4-[5-(trifluoromethyl)-1,2,4-oxadiazol-3-yl]benzamide] | ≥ 80 | ≥ 80 | ≥ 80 | ≥ 80 | ≥ 80
10 |  | C#CCN(OC)C(=O)c1ccc(-c2noc(C(F)(F)F)n2)cc1 [Compound 2.6, N-methoxy-N-prop-2-ynyl-4-[5-(trifluoromethyl)-1,2,4-oxadiazol-3-yl]benzamide] | ≥ 80 | ≥ 80 | ≥ 80 | ≥ 80 | ≥ 80
11 |  | CON(CC=C(Cl)Cl)C(=O)c1ccc(-c2noc(C(F)(F)F)n2)cc1 [Compound 2.7, N-(3,3-dichloroallyl)-N-methoxy-4-[5-(trifluoromethyl)-1,2,4-oxadiazol-3-yl]benzamide] | ≥ 80 | ≥ 80 | ≥ 80 | ≥ 80 | ≥ 80
12 |  | COC(=O)CN(OC)C(=O)c1ccc(-c2noc(C(F)(F)F)n2)cc1 [Compound 2.8, methyl 2-[methoxy-[4-[5-(trifluoromethyl)-1,2,4-oxadiazol-3-yl]benzoyl]amino]acetate] | ≥ 80 | ≥ 80 | ≥ 80 | ≥ 80 | ≥ 80
13 |  | C=CCN(OC)C(=O)c1ccc(-c2noc(C(F)(F)F)n2)cc1 [Compound 2.10, N-allyl-N-methoxy-4-[5-(trifluoromethyl)-1,2,4-oxadiazol-3-yl]benzamide] | ≥ 80 | ≥ 80 | ≥ 80 | ≥ 80 | ≥ 80
14 | 153 to 158 | C=CCONC(=O)Cc1ccc(-c2noc(C(F)(F)F)n2)cc1 [Compound 2.14, N-allyloxy-2-[4-[5-(trifluoromethyl)-1,2,4-oxadiazol-3-yl]phenyl]acetamide] | ≥ 80 |  | ≥ 80 |  | 
